Laboratory results published in patent US6080731A, “Dinucleoside-5', 5'-pyrophosphates administered to treat HIV” (Biosearch Italia, S.p.A., priority 1994, dated 2000).

Tests used:
[1] = 50% cytotoxic concentration in MT-4 cells; assay type: cell-based; conditions: human
From the text: (§1) To confirm the anti-HIV activity of some dinucleoside-5',5'-P^1,P^2-pyrophosphates representative of this invention, invitro tests have been carried out on a HTLV-1 transformed cell line, MT-4, which is highly susceptible to and permissive for HIV infection. The inhibition of the HIV-induced cytopathic effect was used as the end point. The procedure of this test is essentially that described by R. Pauwels et al. "Rapid and automated tetrazolium-based calorimetric assay for the detection of anti-HIV compounds". Journal of Virological Methods, 20, (1988), 309-321.
(§2) Thymine-3'-azido-2',3'-dideoxy-D-riboside (AZT) was taken as control compound.

[2] = Concentration of di-AZT-5',5'-P^1,P^2 -pyrophosphate and its metabolites in human plasma incubated with loaded erythrocytes; assay type: in vitro ADME; conditions: 37° C., autologous plasma, 10% hematocrit, released from loaded erythrocytes
Experimental: (§3) A two step procedure was used consisting of a first dialysis of the washed and packed erythrocytes (80% hematocrit) against 70 volumes of hemolysing buffer (5 mM Na2 HPO4 supplemented with 4 mM MgCl2, pH 7.2, 26 mOsm) for 35 minutes at 4° C. under gentle rotation. This step was followed by addition of 10-15 mM di-AZT-5',5'-P^1,P^2 -pyrcphosphate inside the dialysis bag and further dialysis for 15 minutes under the same conditions. Erythrocytes were then resealed by dialysing them for 40 minutes at 4° C. against phosphate-saline buffer, pH 7.4, supplemented with 10 mM glucose and adenosine, 310 mOsm. The loaded erythrocytes were then extensively washed with ice-cold aqueous NaCl (0.9% w/w) and incubated at 37° C. in autologous plasma at 10% hematocrit.
(§4) The concentration of the dinucleoside pyrophosphate and its metabolites in the plasma and red blood cells was determined at successive time intervals by using the following method.
At various times, 1 ml aliquots of the incubation mixture were withdrawn. After the separation of the erythrocytes from plasma, the two fractions were separately extracted. […]
(§5) 150 Microliters of the plasma fractions were treated with 50 microliters of 3.7 M PCA and 120 microliters of the supernatant were neutralized with 27 microliters of 3 M potassium carbonate and centrifuged. […] The solvent program was a linear gradient starting at 100% of buffer A (0.1 M KH2 PO4 with 5 mM tert-butylammonium hydroxide (TBA), pH 4.9) and increasing up to 100% buffer B (0.1 M KH2 PO4 with 5 mM TBA, in 40% (v/v) methanol in water, pH 4.9) in 30 minutes; 100% buffer B was maintained up to 50 minutes. The flow rate was 0.4 ml/min and the eluted compounds were monitored with a spectrophotometric detector set at 265 nm.

HIV = experiment: Anti-HIV in vitro activity: inhibition of the HIV-induced cytopathic effect in MT-4 cells; assay type: cell-based; conditions: Human immunodeficiency virus 1, MT4, read-out: 50% effective concentration (IC50)
From the text: as §1, §2

[3] = Concentration of di-AZT-5',5'-P^1,P^2 -pyrophosphate and its metabolites in loaded human red blood cells; assay type: in vitro ADME; conditions: 37° C., autologous plasma; for Concentration into human red blood cells: 10% hematocrit, erythrocytes loaded with di-AZT-pyrophosphate
Experimental: as §3, §4
At various times, 1 ml aliquots of the incubation mixture were withdrawn. After the separation of the erythrocytes from plasma, the two fractions were separately extracted.
100 Microliters of packed red blood cells (RBC) were added to 100 microliters of water, then 68 microliters of 3.7 M perchloric acid (PCA) were added under vigorous shaking. The sample was centrifuged and 140 microliters of the supernatant were neutralized with 30 microliters of 3 M potassium carbonate. The sample was then centrifuged to remove the formed precipitate.
as §5

[4] = De-phosphorylation rate of encapsulated pro-drug; assay type: in vitro ADME; conditions: pro-drug for encapsulation into erythrocytes

| SMILES | CC50 [1] [nM] | Concentration in human plasma ([2]; 0 h) [µM] | Concentration in human plasma ([2]; 2 h) [µM] | Concentration in human plasma ([2]; 6 h) [µM] | Concentration in human plasma ([2]; 24 h) [µM] | IC50 (HIV) [nM] | Concentration into human red blood cells ([3]; 6 h) [µM] | Concentration into human red blood cells ([3]; 24 h) [µM] | Concentration into human red blood cells ([3]; 0 h) [µM] | Concentration into human red blood cells ([3]; 2 h) [µM] | Release from the erythrocytes ([3]; human red blood cells) | De-phosphorylation rate with respect to the respective monophosphate [4] |
| --- | --- | --- | --- | --- | --- | --- | --- | --- | --- | --- | --- | --- |
| Cc1cn([C@H]2C[C@H](N=[N+]=[N-])[C@@H](CO)O2)c(=O)[nH]c1=O [AZT, thymine-3'-azido-2',3'-dideoxy-D-riboside, reference compound] | 70000 | 4.6 | 14.42 | 62.43 | 355.78 | 28 | 600 | 100 |  |  |  |  |
| Cc1cn([C@H]2C[C@H](N=[N+]=[N-])[C@@H](COP(=O)(O)O)O2)c(=O)[nH]c1=O [AZT-monophosphate, thymine-3'-azido-2',3'-dideoxy-D-riboside-5'-monophosphate] |  | 21.94 | 28.21 | 24.68 | 67.11 |  | 650 | 930 | 40 | 90 |  |  |
| Cc1cn([C@H]2C[C@H](N=[N+]=[N-])[C@@H](COP(=O)(O)OP(=O)(O)OC[C@H]3O[C@@H](n4cc(C)c(=O)[nH]c4=O)C[C@@H]3N=[N+]=[N-])O2)c(=O)[nH]c1=O [Compound 1, di-(thymine-3'-azido-2',3'-dideoxy-D-riboside)-5',5'-P^1,P^2-pyrophosphate] | > 100000 | 4.49 | 3.75 | 5.27 | 5.34 | 31 | 2900 | 1800 | 3900 | 4100 | released from the erythrocytes at a very low rate |  |
| O=c1[nH]c(=O)n([C@H]2C[C@H](O)[C@@H](COP(=O)(O)OP(=O)(O)OC[C@H]3O[C@@H](n4cc(F)c(=O)[nH]c4=O)C[C@@H]3O)O2)cc1F [Example 6, di-(5-fluorouracil-2'-deoxy-D-riboside)-5',5'-P^1,P^2-pyrophosphate] |  |  |  |  |  |  |  |  |  |  |  | lower de-phosphorylation rate with respect to the respective monophosphate |
